Key:
[1] = tested on: Caki-2 cells; experiment: CCK-8 cell viability assay, Caki-2; type: cell-based; conditions: Caki-2 human renal cancer cells, CCK-8, 24 h, mean ± SEM, n = 3
Procedure: (§1) Human colorectal adenocarcinoma cells (HT-29, ATCC® HTB-38), adenocarcinomic human alveolar basal epithelial cells (A549, ATCC® CCL-185), and prostate cancer (PC-3, ATCC® CRL-1435) were cultured in the growth medium, containing Roswell Park Memorial Institute Medium (RPMI1640) WelGENE, Daegu, Korea supplemented with 10% (v/v) fetal bovine serum (FBS, Gibco, Grand Island, NY, USA) and 1% antibiotics-antimycotics (Gibco). Human breast adenocarcinoma cells (MCF-7, ATCC® HTB-22™), hepatocellular carcinoma (HepG2, ATCC® HB-8065™), Rattus brain glioma (C6, ATCC ® CRL-2303™), and human renal carcinoma (Caki-2, ATCC® HTB-47™) cells were cultured in Dulbecco’s modified Eagle’s medium (DMEM, WelGENE, Daegu, Korea) supplemented with 10% (v/v) FBS (Gibco) and 1% antibiotics-antimycotics (Gibco). Mouse brain neural (NE-4C, ATCC® CRL-2925™) and human cervix adenocarcinoma cells (HeLa, ATCC® CCL-2™) were cultured in Eagle’s minimum essential medium (EMEM, ATCC® 30-2003™) supplemented with 10% FBS (Gibco) and 1% antibiotics-antimycotics (Gibco). Mouse liver normal cells (AML12, ATCC® CRL-2254™) were cultured in DMEM/F-12 (WelGENE) supplemented with 10% FBS (Gibco), 1 × ITS (10 μg/mL insulin, 5.5 μg/mL transferrin, 6.7 ng/mL selenium, Gibco), […] 1% antibiotics-antimycotics (Gibco). Human breast epithelial cells (MCF 10A, ATCC® CRL-10317™) were cultured in DMEM/F-12 (WelGENE) supplemented with 5% horse serum (Gibco), 20 ng/mL epidermal growth factor (EGF, Peprotech Inc., Rocky Hill, NJ, USA), […] (Sigma-Aldrich, St. Louis, MO, USA), 100 ng/mL colera toxin (Sigma-Aldrich), 10 μg/mL insulin (Sigma-Aldrich) and 1% antibiotics- (Gibco). Human colon normal epithelial cells (FHC, ATCC® CRL-18317™) were cultured in DMEM/F-12 (WelGENE) supplemented with 10% FBS (Gibco), 10 ng/mL cholera toxin (Sigma-Aldrich), 20 ng/mL EGF (Peprotech Inc.), 100 μg/mL hydrocortisone (Sigma-Aldrich), 1 × ITS (10 μg/mL insulin, 5.5 μg/mL transferrin, 6.7 ng/mL selenium, Gibco) and 1% antibiotics-antimycotics (with 100 units penicillin, 100 μg streptomycin and 250 ng amphotericin B per mL, Gibco). Cells were incubated in a humidified 5% CO2 atmosphere at 37 °C.
(§2) To evaluate cytotoxicity, cells were seeded in a 96-well plate (FHC, 0.5 × 10^4 cells/well; Caki-2 and MCF 10A, 1 × 10^4 cells/well; AML12, 1.2 × 10^4 cells/well; HeLa, HEK-293, A549, and PC-3, 1.5 × 10^4 cells/well; HT-29, MCF-7, C6, HepG2, and NE-4C, 2 × 10^4 cells/well). […] In addition, cell counting kit-8 (CCK-8, Dojindo Laboratories, Kumamoto, Japan) solution was added to each well, and the plate was incubated for 2 h. The absorbance was then measured at 450 nm using a microplate reader (SpectraMax i3, Molecular Devices, San Jose, CA, USA). The IC50 and logIC50 values were calculated in GraphPad Prism (GraphPad Prism Software Inc. Version 5.02, San Diego, CA, USA). All experiments were performed, independently, three times. The graph of logIC50 values represents the average value.

[2] = tested on: A549 cells; experiment: CCK-8 cell viability assay, A549; type: cell-based; conditions: A549 human lung cancer cells, CCK-8, 24 h, mean ± SEM, n = 3
Procedure: as §1, §2

[3] = tested on: C6 cells; experiment: CCK-8 cell viability assay, C6; type: cell-based, Rattus; conditions: C6 brain glioma cells, CCK-8, 24 h, mean ± SEM, n = 3
Procedure: as §1, §2

[4] = tested on: MCF-10A cells; experiment: CCK-8 cell viability assay, MCF-10A normal cells; type: cell-based; conditions: MCF-10A normal human breast epithelial cells, CCK-8, 24 h, mean ± SEM, n = 3
Procedure: as §1, §2

[5] = tested on: HeLa cells; experiment: CCK-8 cell viability assay, HeLa; type: cell-based; conditions: HeLa human cervical cancer cells, CCK-8, 24 h, mean ± SEM, n = 3
Procedure: as §1, §2

[6] = tested on: PC-3 cells; experiment: CCK-8 cell viability assay, PC-3; type: cell-based; conditions: PC-3 human prostate cancer cells, CCK-8, 24 h, mean ± SEM, n = 3
Procedure: as §1, §2

[7] = tested on: HT-29 cells; experiment: CCK-8 cell viability assay, HT-29; type: cell-based; conditions: HT-29 human colon cancer cells, CCK-8, 24 h, mean ± SEM, n = 3
Procedure: as §1, §2

[8] = tested on: NE-4C cells; experiment: CCK-8 cell viability assay, NE-4C normal cells; type: cell-based; conditions: NE-4C mouse brain neural stem cells, CCK-8, 24 h, mean ± SEM, n = 3
Procedure: as §1, §2

[9] = tested on: AML12 cells; experiment: CCK-8 cell viability assay, AML12 normal cells; type: cell-based; conditions: AML12 normal mouse liver hepatocyte cells, CCK-8, 24 h, mean ± SEM, n = 3
Procedure: as §1, §2

[10] = tested on: MCF-7 cells; experiment: CCK-8 cell viability assay, MCF-7; type: cell-based; conditions: MCF-7 human breast cancer cells, CCK-8, 24 h, mean ± SEM, n = 3
Procedure: as §1, §2

[11] = tested on: HEK-293 cells; experiment: CCK-8 cell viability assay, HEK-293 normal cells; type: cell-based; conditions: HEK-293 human embryonic kidney cells, CCK-8, 24 h, mean ± SEM, n = 3
Procedure: as §2

[12] = tested on: FHC cells; experiment: CCK-8 cell viability assay, FHC normal cells; type: cell-based; conditions: FHC normal human colon epithelial cells, CCK-8, 24 h, mean ± SEM, n = 3
Procedure: as §1, §2

[13] = tested on: HepG2 cells; experiment: CCK-8 cell viability assay, HepG2; type: cell-based; conditions: HepG2 human hepatic carcinoma cells, CCK-8, 24 h, mean ± SEM, n = 3
Procedure: as §1, §2

[14] = Stability in buffered aqueous solution by UV-Vis spectroscopy; type: physicochemical
Procedure: An indispensable feature of any promising anticancer agent is its thermodynamic stability in aqueous media. All prospective agents should be able to reach their target under the conditions encountered in living organisms. Therefore, the stability of the compounds was measured at 1 mM in phosphate-buffered saline (PBS) solution using UV–Vis spectroscopy. […] The stability of the metal complexes is often dependent on the pH value and the pH 4.5–5.0 is crucial since endosomal uptake of the complexes by lysosomes can occur.

[15] = Solubility in water / aqueous media; type: physicochemical

## O=C(Nc1ccc(-c2nc3ccccc3s2)cc1)C1CNC(c2ccccn2)=N1 (centres unmarked) [Compound L3, 2-Pyridin-2-yl-4,5-dihydro-1H-imidazole-4-carboxylic acid (4-benzothiazol-2-yl-phenyl)amide]
[1]
  IC50: > 500 µM
[2]
  IC50: > 500 µM
[3]; Rattus norvegicus
  IC50: 142 ± 15.3 µM
[4]
  IC50: > 500 µM
[5]
  IC50: 98.9 ± 3.5 µM
[6]
  IC50: 130 ± 34.7 µM
[7]
  IC50: 70.5 ± 0.2 µM
[8]; Neural stem cell
  IC50: 22.4 ± 2.4 µM
[9]
  IC50: > 500 µM
[10]; MCF7
  IC50: 190 ± 16.5 µM
[11]; HEK293
  IC50: > 500 µM
[12]
  IC50: > 500 µM
[13]
  IC50: > 500 µM

## O=C(Nc1ccc(-c2nc3ccccc3s2)cc1)C(C/N=C/c1ccccc1O)/N=C/c1ccccc1O (centres unmarked) [Compound L2, N-(4-Benzothiazol-2-yl-phenyl)-2,3-bis-[(2-hydroxy-benzylidene)amino] propionamide]
[1]
  IC50: 159 ± 4.3 µM
[2]
  IC50: 182.4 ± 0.8 µM
[3]; Rattus norvegicus
  IC50: 143 ± 32.7 µM
[4]
  IC50: 79.3 ± 25.4 µM
[5]
  IC50: 47 ± 6 µM
[6]
  IC50: 116 ± 5 µM
[7]
  IC50: 135 ± 4.4 µM
[8]; Neural stem cell
  IC50: 28.2 ± 0.1 µM
[9]
  IC50: > 500 µM
[10]; MCF7
  IC50: 98.1 ± 7.9 µM
[11]; HEK293
  IC50: 139 ± 20.1 µM
[12]
  IC50: 189 ± 10.3 µM
[13]
  IC50: 14.2 ± 7 µM

## NCC(N)C(=O)Nc1ccc(-c2nc3ccccc3s2)cc1 (centres unmarked) [Compound L1, 2,3-Diamino-N-(4-benzothiazol-2-yl-phenyl)-propionamide]
[14]; 1 mM in PBS (L1Pt: 2% DMSO in PBS), physiological pH 7.4, t = 0, 7, 24 h, 200-450 nm
  Stability, time-dependent UV-Vis spectrum: did not display any significant changes throughout 24 h
[14]; 1 mM in PBS, acidic (pH 2), weakly acidic (pH 5), alkaline (pH 12), t = 0, 7, 24 h
  Stability, time-dependent UV-Vis spectrum at other pH-values: no obvious changes in the absorptions peak
[15]
  Solubility in water / aqueous media: soluble in water
[1]
  IC50: 75.6 ± 3.4 µM
[2]
  IC50: 100 ± 8.4 µM
[3]; Rattus norvegicus
  IC50: 77.8 ± 9.7 µM
[4]
  IC50: 65.1 ± 1.9 µM
[5]
  IC50: 41.9 ± 3.4 µM
[6]
  IC50: 94.9 ± 0.8 µM
[7]
  IC50: 29.9 ± 0.3 µM
[8]; Neural stem cell
  IC50: 36.8 ± 3.7 µM
[9]
  IC50: 138 ± 24.1 µM
[10]; MCF7
  IC50: 65.9 ± 12.3 µM
[11]; HEK293
  IC50: 68.1 ± 2.8 µM
[12]
  IC50: 72.7 ± 2 µM
[13]
  IC50: 5.9 ± 0.5 µM

## Nc1ccc(-c2nc3ccccc3s2)cc1 [BTA, 2-(4-aminophenyl)-benzothiazole, reference compound]
[1]
  IC50: 463 ± 44.1 µM
[2]
  IC50: > 500 µM
[3]; Rattus norvegicus
  IC50: 425 ± 47.7 µM
[4]
  IC50: 401 ± 136 µM
[5]
  IC50: 76.4 ± 23.4 µM
[6]
  IC50: 182 ± 7.8 µM
[7]
  IC50: 275 ± 5 µM
[8]; Neural stem cell
  IC50: 60.9 ± 2.9 µM
[9]
  IC50: > 500 µM
[10]; MCF7
  IC50: 104 ± 28.6 µM
[11]; HEK293
  IC50: > 500 µM
[12]
  IC50: > 500 µM
[13]
  IC50: 52 ± 5.7 µM

## N.N.[Cl][Pt][Cl] [Cisplatin, cis-diamminedichloroplatinum-(II), reference compound]
[1]
  IC50: > 500 µM
[2]
  IC50: > 500 µM
[3]
  IC50: 227 ± 34.3 µM
[4]
  IC50: 95.9 ± 6.7 µM
[5]
  IC50: 26.2 ± 5.6 µM
[6]
  IC50: > 500 µM
[7]
  IC50: 39.1 ± 0.6 µM
[8]
  IC50: 9 ± 0.3 µM
[9]
  IC50: 32.1 ± 4.4 µM
[9]; listed as cisplatin
  IC50: 32 µM
[10]
  IC50: 204 ± 27.3 µM
[11]
  IC50: 65.5 ± 4.1 µM
[12]
  IC50: > 500 µM
[13]
  IC50: 54.2 ± 31.8 µM

## O=C(Nc1ccc(-c2nc3ccccc3s2)cc1)C1C[N+]2=Cc3ccccc3[O][Pt-2]23[O]c2ccccc2C=[N+]13 (centres unmarked) [Compound L2Pt]
[1]
  IC50: > 500 µM
[2]
  IC50: > 500 µM
[3]
  IC50: > 500 µM
[4]
  IC50: > 500 µM
[5]
  IC50: 221 ± 15.8 µM
[6]
  IC50: > 500 µM
[7]
  IC50: 173 ± 3.2 µM
[8]
  IC50: 47 ± 4.1 µM
[9]
  IC50: > 500 µM
[10]
  IC50: > 500 µM
[11]
  IC50: 212 ± 14.9 µM
[12]
  IC50: > 500 µM
[13]
  IC50: 31.6 ± 3.6 µM

## O=C(Nc1ccc(-c2nc3ccccc3s2)cc1)C1CNC2=[N+]1[Pt-2]([Cl])([Cl])[n+]1ccccc12 (centres unmarked) [Compound L3Pt]
[1]
  IC50: > 500 µM
[2]
  IC50: > 500 µM
[3]
  IC50: > 500 µM
[4]
  IC50: > 500 µM
[5]
  IC50: > 500 µM
[6]
  IC50: > 500 µM
[7]
  IC50: > 500 µM
[8]
  IC50: 32.4 ± 6 µM
[9]
  IC50: > 500 µM
[10]
  IC50: > 500 µM
[11]
  IC50: 206 ± 7.4 µM
[12]
  IC50: > 500 µM
[13]
  IC50: > 500 µM

Source: publication PMC8399196, “Synthesis, Characterization, and Anticancer Activity of Benzothiazole Aniline Derivatives and Their Platinum (II) Complexes as New Chemotherapy Agents” (Pharmaceuticals, 2021)
